In ChEMBL document CHEMBL5550132, “Structure-activity relationship in NOD2 agonistic muramyl dipeptides” (Eur J Med Chem, 2024):

Columns and labels:
[1] = target: Nuclear factor NF-kappa-B complex (Homo sapiens) (UniProt Q00653+P19838+Q04206); experiment: Activation of NF-KappaB (unknown origin) expressed in HEK293T cells assessed as fold change at 20 uM; type: cell-based; settings: filed as activator
[2] = target: Nucleotide-binding oligomerization domain-containing protein 2 (Homo sapiens, UniProt Q9HC29); experiment: Activation of NOD2 in HEK293T cells; type: cell-based; settings: filed as activator
Cavia porcellus [3] = species: Cavia porcellus; experiment: Induction of delayed type hypersensitivity in ABA-BSA immunized Hartley Guinea pigs assessed as reduction in skin lesions at 100 ug measured for 24 hrs; type: functional; settings: dose 100 µg
Cavia porcellus [4] = species: Cavia porcellus; experiment: Induction of delayed type hypersensitivity in ABA-BSA immunized Hartley Guinea pigs assessed as reduction in skin lesions at 100 ug measured for 48 hrs; type: functional; settings: dose 100 µg

Nuclear factor NF-kappa-B complex (Homo sapiens), sequence (P19838 whole entry, looked up, the tested form may be a part): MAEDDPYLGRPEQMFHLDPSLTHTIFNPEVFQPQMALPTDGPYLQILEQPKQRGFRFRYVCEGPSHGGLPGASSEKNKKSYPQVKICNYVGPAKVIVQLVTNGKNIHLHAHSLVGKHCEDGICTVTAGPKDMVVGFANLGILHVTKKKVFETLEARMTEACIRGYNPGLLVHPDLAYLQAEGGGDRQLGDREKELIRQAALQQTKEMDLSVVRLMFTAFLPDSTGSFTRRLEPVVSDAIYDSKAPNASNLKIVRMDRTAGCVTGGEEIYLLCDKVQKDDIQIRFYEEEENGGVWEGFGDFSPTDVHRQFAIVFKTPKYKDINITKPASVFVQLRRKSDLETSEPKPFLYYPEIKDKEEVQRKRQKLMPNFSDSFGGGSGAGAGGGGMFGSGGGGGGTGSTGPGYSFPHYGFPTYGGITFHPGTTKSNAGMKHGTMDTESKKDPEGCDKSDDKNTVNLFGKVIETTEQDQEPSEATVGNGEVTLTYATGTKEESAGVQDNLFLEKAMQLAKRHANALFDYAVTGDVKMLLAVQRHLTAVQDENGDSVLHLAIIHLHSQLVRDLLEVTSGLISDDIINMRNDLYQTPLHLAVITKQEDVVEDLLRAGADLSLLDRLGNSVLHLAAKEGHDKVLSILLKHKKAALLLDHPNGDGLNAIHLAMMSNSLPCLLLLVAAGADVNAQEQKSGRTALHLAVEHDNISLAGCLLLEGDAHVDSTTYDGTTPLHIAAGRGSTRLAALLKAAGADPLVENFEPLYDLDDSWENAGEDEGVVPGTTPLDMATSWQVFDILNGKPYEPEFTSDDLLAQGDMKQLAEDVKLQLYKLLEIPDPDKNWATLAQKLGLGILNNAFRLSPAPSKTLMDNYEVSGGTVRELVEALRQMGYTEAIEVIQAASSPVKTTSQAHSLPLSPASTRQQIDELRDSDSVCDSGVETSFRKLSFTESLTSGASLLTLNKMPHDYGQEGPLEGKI
Nuclear factor NF-kappa-B complex (Homo sapiens), sequence (Q00653 whole entry, looked up, the tested form may be a part): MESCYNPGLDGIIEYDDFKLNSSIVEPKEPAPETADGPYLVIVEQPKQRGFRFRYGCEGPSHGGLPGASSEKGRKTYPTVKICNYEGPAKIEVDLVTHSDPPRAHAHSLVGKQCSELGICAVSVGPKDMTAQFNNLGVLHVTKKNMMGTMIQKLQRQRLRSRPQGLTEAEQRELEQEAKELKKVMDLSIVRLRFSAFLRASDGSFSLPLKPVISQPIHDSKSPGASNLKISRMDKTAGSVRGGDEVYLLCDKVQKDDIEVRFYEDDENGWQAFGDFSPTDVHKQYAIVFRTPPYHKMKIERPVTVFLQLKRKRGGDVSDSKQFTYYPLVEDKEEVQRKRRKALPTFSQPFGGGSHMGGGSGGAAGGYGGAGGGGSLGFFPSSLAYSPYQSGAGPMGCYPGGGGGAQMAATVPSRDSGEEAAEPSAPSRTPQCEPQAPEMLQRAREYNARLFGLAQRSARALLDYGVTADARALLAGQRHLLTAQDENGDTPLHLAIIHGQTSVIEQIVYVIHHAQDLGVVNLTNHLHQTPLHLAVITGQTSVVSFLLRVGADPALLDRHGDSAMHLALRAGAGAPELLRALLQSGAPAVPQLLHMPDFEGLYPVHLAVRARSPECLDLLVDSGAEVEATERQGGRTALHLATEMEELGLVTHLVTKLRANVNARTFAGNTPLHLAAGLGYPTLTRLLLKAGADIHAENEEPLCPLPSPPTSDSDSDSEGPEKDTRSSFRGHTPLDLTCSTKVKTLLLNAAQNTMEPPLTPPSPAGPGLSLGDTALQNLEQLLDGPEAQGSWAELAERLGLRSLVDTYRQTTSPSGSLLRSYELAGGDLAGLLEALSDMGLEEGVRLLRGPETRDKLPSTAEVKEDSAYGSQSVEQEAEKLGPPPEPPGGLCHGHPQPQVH
Nuclear factor NF-kappa-B complex (Homo sapiens), sequence (Q04206 whole entry, looked up, the tested form may be a part): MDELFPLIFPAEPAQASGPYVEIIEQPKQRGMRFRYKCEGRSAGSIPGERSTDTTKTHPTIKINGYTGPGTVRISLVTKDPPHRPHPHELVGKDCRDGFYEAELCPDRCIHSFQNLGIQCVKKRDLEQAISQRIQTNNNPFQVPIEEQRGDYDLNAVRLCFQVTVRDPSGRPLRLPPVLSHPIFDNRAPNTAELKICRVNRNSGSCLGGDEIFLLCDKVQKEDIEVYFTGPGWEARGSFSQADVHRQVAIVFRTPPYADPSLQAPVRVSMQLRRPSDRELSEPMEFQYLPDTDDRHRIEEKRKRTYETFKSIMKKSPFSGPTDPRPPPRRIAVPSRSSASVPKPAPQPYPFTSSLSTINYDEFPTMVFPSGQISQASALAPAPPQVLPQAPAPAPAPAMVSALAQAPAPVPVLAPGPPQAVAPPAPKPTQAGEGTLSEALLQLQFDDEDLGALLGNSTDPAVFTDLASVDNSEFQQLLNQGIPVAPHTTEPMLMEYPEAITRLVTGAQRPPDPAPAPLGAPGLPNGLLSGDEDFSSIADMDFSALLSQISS
Nucleotide-binding oligomerization domain-containing protein 2, sequence (Q9HC29 whole entry, the tested form may be a part): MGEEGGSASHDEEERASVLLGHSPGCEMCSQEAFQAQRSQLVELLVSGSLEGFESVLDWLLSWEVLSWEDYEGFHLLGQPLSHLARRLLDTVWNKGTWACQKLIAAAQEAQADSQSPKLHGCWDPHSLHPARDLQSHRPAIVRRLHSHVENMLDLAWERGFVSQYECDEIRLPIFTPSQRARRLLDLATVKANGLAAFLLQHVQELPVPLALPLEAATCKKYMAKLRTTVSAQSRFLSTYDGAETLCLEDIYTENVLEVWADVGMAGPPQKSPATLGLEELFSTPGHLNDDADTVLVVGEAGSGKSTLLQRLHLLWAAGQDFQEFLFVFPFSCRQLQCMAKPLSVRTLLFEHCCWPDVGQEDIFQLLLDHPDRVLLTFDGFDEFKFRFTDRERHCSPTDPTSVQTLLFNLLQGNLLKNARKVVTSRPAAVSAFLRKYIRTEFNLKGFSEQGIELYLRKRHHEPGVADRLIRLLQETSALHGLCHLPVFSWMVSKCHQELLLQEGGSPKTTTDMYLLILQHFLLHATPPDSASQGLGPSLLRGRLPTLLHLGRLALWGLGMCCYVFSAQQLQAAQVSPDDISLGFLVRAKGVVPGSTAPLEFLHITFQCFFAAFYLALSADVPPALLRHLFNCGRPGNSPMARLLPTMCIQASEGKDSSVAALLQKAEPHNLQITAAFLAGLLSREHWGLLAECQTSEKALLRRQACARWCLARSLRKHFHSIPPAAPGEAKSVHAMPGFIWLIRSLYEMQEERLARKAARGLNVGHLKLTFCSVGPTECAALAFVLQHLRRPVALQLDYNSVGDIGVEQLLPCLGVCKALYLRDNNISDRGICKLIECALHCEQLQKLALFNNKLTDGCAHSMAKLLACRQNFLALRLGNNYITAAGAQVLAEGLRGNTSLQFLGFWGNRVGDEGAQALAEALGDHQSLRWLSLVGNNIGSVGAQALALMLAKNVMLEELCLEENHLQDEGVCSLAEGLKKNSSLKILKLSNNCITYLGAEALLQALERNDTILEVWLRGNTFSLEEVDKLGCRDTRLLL

Row | SMILES | fold change (FC) [1] | Activity (Cavia porcellus [3]) [mm] | Activity (Cavia porcellus [4]) [mm] | other results
1 | C[C@H](NC(=O)[C@@H](C)O[C@H]1[C@H](O)[C@@H](CO)O[C@@H](OCc2ccccc2)[C@@H]1N=[N+]=[N-])C(=O)N[C@H](CCC(=O)O)C(N)=O | 0.08 | – | – | –
2 | CCO[C@@H]1O[C@H](CO)[C@@H](O[C@@H]2O[C@H](CO)[C@@H](O[C@@H]3O[C@H](CO)[C@@H](O[C@@H]4O[C@H](CO)[C@@H](O)[C@H](O[C@H](C)C(=O)N[C@@H](C)C(=O)N[C@H](CCC(=O)N[C@@H](CCCCN)C(=O)N[C@H](C)C(=O)O)C(N)=O)[C@H]4NC(C)=O)[C@H](O)[C@H]3NC(C)=O)[C@H](O)[C@H]2NC(C)=O)[C@H](O[C@H](C)C(=O)N[C@@H](C)C(=O)N[C@H](CCC(=O)N[C@@H](CCCCN)C(=O)N[C@H](C)C(=O)O)C(N)=O)[C@H]1NC(C)=O | – | – | – | Activity [2]: 0.09 mU
3 | CCO[C@@H]1O[C@H](CO)[C@@H](O[C@@H]2O[C@H](CO)[C@@H](O[C@@H]3O[C@H](CO)[C@@H](O[C@@H]4O[C@H](CO)[C@@H](O)[C@H](O[C@H](C)C(=O)N[C@@H](C)C(=O)N[C@H](CCC(=O)N[C@@H](CCCCN)C(=O)N[C@H](C)C(=O)N[C@H](C)C(=O)O)C(N)=O)[C@H]4NC(C)=O)[C@H](O)[C@H]3NC(C)=O)[C@H](O[C@H](C)C(=O)N[C@@H](C)C(=O)N[C@H](CCC(=O)N[C@@H](CCCCN)C(=O)N[C@H](C)C(=O)N[C@H](C)C(=O)O)C(N)=O)[C@H]2NC(C)=O)[C@H](O)[C@H]1NC(C)=O | – | – | – | Activity [2]: 12.5 mU
4 | CCCCCCCCOC(=O)CC[C@@H](NC(=O)[C@H](C)NC(=O)[C@@H](C)O[C@H]1[C@H](O)[C@@H](CO)O[C@@H](OCc2ccccc2)[C@@H]1N=[N+]=[N-])C(N)=O | 0.04 | – | – | –
5 | CCO[C@@H]1O[C@H](CO)[C@@H](O[C@@H]2O[C@H](CO)[C@@H](O[C@@H]3O[C@H](CO)[C@@H](O[C@@H]4O[C@H](CO)[C@@H](O)[C@H](O)[C@H]4NC(C)=O)[C@H](O[C@H](C)C(=O)N[C@@H](C)C(=O)N[C@H](CCC(=O)O)C(N)=O)[C@H]3NC(C)=O)[C@H](O)[C@H]2NC(C)=O)[C@H](O[C@H](C)C(=O)N[C@@H](C)C(=O)N[C@H](CCC(=O)O)C(N)=O)[C@H]1NC(C)=O | – | – | – | Activity [2]: 80 mU
6 | CCCCCCCC(=O)NC[C@H]1O[C@@H](O)[C@H](NC(C)=O)[C@@H](O[C@H](C)C(=O)N[C@@H](C)C(=O)N[C@H](CCC(=O)O)C(N)=O)[C@@H]1O | – | 16.7 | 8.8 | –
7 | CC(=O)N[C@@H]1[C@@H](O[C@H](C)C(=O)N[C@H](C(=O)N[C@H](CCC(=O)O)C(N)=O)C(C)C)[C@H](O)[C@@H](CO)O[C@H]1O | – | 25.2 | 24.6 | –
8 | CC(=O)N[C@@H]1[C@@H](O[C@H](C)C(=O)N[C@@H](C)C(=O)N[C@H](CCC(=O)O)C(N)=O)[C@H](O[C@@H]2O[C@H](CO)[C@@H](O)[C@H](O)[C@H]2NC(C)=O)[C@@H](CO)O[C@H]1O | – | – | – | Activity [2]: 1000 mU
9 | CCO[C@@H]1O[C@H](CO)[C@@H](O[C@@H]2O[C@H](CO)[C@@H](O[C@@H]3O[C@H](CO)[C@@H](O[C@@H]4O[C@H](CO)[C@@H](O)[C@H](O[C@H](C)C(=O)N[C@@H](C)C(=O)N[C@H](CCC(=O)O)C(N)=O)[C@H]4NC(C)=O)[C@H](O)[C@H]3NC(C)=O)[C@H](O[C@H](C)C(=O)N[C@@H](C)C(=O)N[C@H](CCC(=O)O)C(N)=O)[C@H]2NC(C)=O)[C@H](O)[C@H]1NC(C)=O | – | – | – | Activity [2]: 800 mU
10 | CC(=O)N[C@@H]1[C@@H](O)[C@H](O[C@@H]2O[C@H](CO)[C@@H](O)[C@H](O[C@H](C)C(=O)N[C@@H](C)C(=O)N[C@H](CCC(=O)N[C@@H](CCCCN)C(=O)O)C(N)=O)[C@H]2NC(C)=O)[C@@H](CO)O[C@H]1O | – | – | – | Activity [2]: 100 mU
11 | CC(=O)N[C@@H]1[C@@H](O[C@H](C)C(=O)N[C@@H](CO)C(=O)N[C@H](CCC(=O)O)C(N)=O)[C@H](O)[C@@H](CO)O[C@H]1O | – | 23.1 | 21.6 | –
12 | C[C@H](NC(=O)[C@@H](C)O[C@H]1[C@H](O)[C@@H](CO)O[C@@H](OCc2ccccc2)[C@@H]1N=[N+]=[N-])C(=O)N[C@H](CCC(=O)OCc1ccccc1)C(N)=O | 0.11 | – | – | –
13 | CCCCCCCCCCCCCCOC(=O)CC[C@@H](NC(=O)[C@H](C)NC(=O)[C@@H](C)O[C@H]1[C@H](O)[C@@H](CO)O[C@@H](OCc2ccccc2)[C@@H]1N=[N+]=[N-])C(N)=O | 0.04 | – | – | –
14 | CCCCCCCCCCCCCCCCCC(=O)NC[C@H]1O[C@@H](O)[C@H](NC(C)=O)[C@@H](O[C@H](C)C(=O)N[C@@H](C)C(=O)N[C@H](CCC(=O)O)C(N)=O)[C@@H]1O | – | 20.5 | 15.8 | –
15 | C[C@H](NC(=O)[C@@H](C)O[C@@H]1[C@@H](N)[C@H](O)O[C@H](CN)[C@H]1O)C(=O)N[C@H](CCC(=O)O)C(N)=O | – | 15.1 | 9.3 | –
16 | CCO[C@@H]1O[C@H](CO)[C@@H](O[C@@H]2O[C@H](CO)[C@@H](O[C@@H]3O[C@H](CO)[C@@H](O[C@@H]4O[C@H](CO)[C@@H](O)[C@H](O[C@H](C)C(=O)N[C@@H](C)C(=O)N[C@H](CCC(=O)N[C@@H](CCCCN)C(=O)O)C(N)=O)[C@H]4NC(C)=O)[C@H](O)[C@H]3NC(C)=O)[C@H](O)[C@H]2NC(C)=O)[C@H](O[C@H](C)C(=O)N[C@@H](C)C(=O)N[C@H](CCC(=O)N[C@@H](CCCCN)C(=O)O)C(N)=O)[C@H]1NC(C)=O | – | – | – | Activity [2]: 0.5 mU
17 | CC(=O)NC[C@H]1O[C@@H](O)[C@H](NC(C)=O)[C@@H](O[C@H](C)C(=O)N[C@H](C(=O)N[C@H](CCC(=O)O)C(N)=O)C(C)C)[C@@H]1O | – | 19.1 | 19.5 | –
18 | C[C@H](NC(=O)[C@@H](C)O[C@@H]1[C@@H](N)[C@H](O)O[C@H](CN)[C@H]1O)C(=O)N[C@H](CCC(=O)O)C(N)=O.Cl.Cl | – | 17.1 | 5.1 | –
19 | CC(=O)NC[C@H]1O[C@@H](O)[C@H](NC(C)=O)[C@@H](O[C@H](C)C(=O)N[C@@H](CO)C(=O)N[C@H](CCC(=O)O)C(N)=O)[C@@H]1O | – | 20.4 | 19.6 | –
20 | CCCCCCCCCCCCCCCCCC(=O)NC[C@H]1O[C@@H](O)[C@H](NC(C)=O)[C@@H](O[C@H](C)C(=O)N[C@H](C(=O)N[C@H](CCC(=O)O)C(N)=O)C(C)C)[C@@H]1O | – | 22.5 | 18.5 | –

The next lines start with results.

Row | fold change (FC) [1] | SMILES | Activity (Cavia porcellus [3]) [mm] | Activity (Cavia porcellus [4]) [mm] | other results
21 | 1.9 | C[C@H](NC(=O)[C@@H](C)O[C@H]1[C@H](O)[C@@H](CO)O[C@@H](O)[C@@H]1NC(=O)C(F)(F)F)C(=O)N[C@H](CCC(=O)O)C(N)=O | – | – | –
22 | 1.8 | C[C@H](NC(=O)[C@@H](C)O[C@H]1[C@H](O)[C@@H](CO)O[C@@H](O)[C@@H]1NC(=O)CN=[N+]=[N-])C(=O)N[C@H](CCC(=O)O)C(N)=O | – | – | –
23 | 2.4 | COC(=O)CCC(=O)N[C@@H]1[C@@H](O[C@H](C)C(=O)N[C@@H](C)C(=O)N[C@H](CCC(=O)O)C(N)=O)[C@H](O)[C@@H](CO)O[C@H]1O | – | – | –
24 | 2.3 | C[C@H](NC(=O)[C@@H](C)O[C@H]1[C@H](O)[C@@H](CO)O[C@@H](O)[C@@H]1NC(=O)CCC(=O)O)C(=O)N[C@H](CCC(=O)O)C(N)=O | – | – | –
25 | 2.5 | C[C@H](NC(=O)[C@@H](C)O[C@H]1[C@H](O)[C@@H](CO)O[C@@H](O)[C@@H]1NOC(=O)CCCC[C@@H]1SC[C@@H]2NC(=O)N[C@@H]21)C(=O)N[C@H](CCC(=O)O)C(N)=O | – | – | –
26 | 2.2 | CC(=O)OCC(=O)N[C@@H]1[C@@H](O[C@H](C)C(=O)N[C@@H](C)C(=O)N[C@H](CCC(=O)O)C(N)=O)[C@H](O)[C@@H](CO)O[C@H]1O | – | – | –
